# Measured values from publication PMC4626215, “Esculentin-2CHa-Related Peptides Modulate Islet Cell Function and Improve Glucose Tolerance in Mice with Diet-Induced Obesity and Insulin Resistance” (PLoS ONE, 2015).
# Bridges are numbered along the chain shown (N, C = ends). Where no end group is shown, it is not given here.
# What was measured:
# BRIN-BD11 cells [1] = details: 3 μM peptide (highest concentration); mean ± SEM, n = 8
# Method: In vitro insulin-releasing effects of esculentin-2CHa and its analogues were assessed using BRIN-BD11 rat clonal β-cells and mouse islets. In the first set of experiments, BRIN-BD11 cells were incubated with the peptides in the concentration range (1 pM– 3 μM) in Krebs-Ringer bicarbonate buffer containing 5.6 mM glucose for 20 min at 37°C as previously described. Insulin-releasing effects were also assessed using buffer supplemented with 1.4 and 16.7mm glucose concentrations and with established modulators of insulin release as previously described. In a second set of experiments, islets from NIH Swiss mice, isolated by collagenase digestion, were incubated with a range of concentrations of esculentin-2CHa or its analogues (0.1 nM– 1 μM) for 1 h in Krebs-Ringer bicarbonate (KRB) buffer supplemented with 1.4, 5.6 or 16.7 mM glucose. Following test incubations, aliquots of buffer were retrieved and stored at -20°C for measurement of insulin by radioimmunoassay. In the experiments with BRIN-BD11 cells, the release of lactate dehydrogenase (LDH) was measured as an indicator of the integrity of the plasma membrane using commercially available CytoTox 96 non-radioactive cytotoxicity assay kit (Promega, Madison, WI, USA) according to the manufacturer’s recommended protocol.
# [2] = test system: islets from NIH Swiss mice; assay: In vitro insulin release from isolated mouse islets; type: cell-based; details: 16.7 mM glucose
# Method: (§4) In vitro insulin-releasing effects of esculentin-2CHa and its analogues were assessed using BRIN-BD11 rat clonal β-cells and mouse islets. In the first set of experiments, BRIN-BD11 cells were incubated with the peptides in the concentration range (1 pM– 3 μM) in Krebs-Ringer bicarbonate buffer containing 5.6 mM glucose for 20 min at 37°C as previously described [15–17]. Insulin-releasing effects were also assessed using buffer supplemented with 1.4 and 16.7mm glucose concentrations and with established modulators of insulin release as previously described [15–17]. In a second set of experiments, islets from NIH Swiss mice, isolated by collagenase digestion [18, 19], were incubated with a range of concentrations of esculentin-2CHa or its analogues (0.1 nM– 1 μM) for 1 h in Krebs-Ringer bicarbonate (KRB) buffer supplemented with 1.4, 5.6 or 16.7 mM glucose. Following test incubations, aliquots of buffer were retrieved and stored at -20°C for measurement of insulin by radioimmunoassay [20].
# high fat fed mice [3] = assay: Longer-term (28 day) in vivo study; parameters: species or system mouse; Reduction of pancreatic glucagon / Reduction of plasma glucagon / Reduction of total islet area / Reduction of beta cell area / Reduction of alpha cell area: concentration or dose not given beside the values
# Method: (§1) Male National Institutes of Health (NIH) Swiss mice (Harlan Ltd, UK) were housed separately in an air-conditioned room (22 ± 2°C) with relative humidity of 51 ± 5% and a 12-hour light: 12-hour dark cycle and maintained on a high fat diet containing 45% fat, 20% protein and 35% carbohydrate (total energy 19.5 kJ/g, Dietex International Ltd, Witham, UK) for 120 days. Mice maintained on standard rodent diet containing 10% fat, 30% protein and 60% carbohydrates (total energy 12.99 kJ/g) were used as controls. Both groups of animals were allowed food and water ad libitum. All animal experiments were carried out in accordance with the UK Animals (Scientific Procedures) Act 1986 and EU Directive 2010/63EU for animal experiments. The study was approved by University of Ulster Research Ethics Committee.
# High-fat fed mice with clearly manifested features of obesity and hyperglycaemia received twice daily injections of either saline vehicle (0.9% (w/v) (high fat fed controls) or [L28K]esculentin-2CHa (75 nmol/kg body weight) for 28 days. This peptide was chosen based on its potent in vitro and acute in vivo actions. Mice (n = 8) fed standard rodent diet and injected with saline were used as lean controls. Energy intake, bodyweight, non-fasting blood glucose and plasma insulin concentrations were monitored every 72 h throughout the duration of the study. At the end of the 28 day treatment period, glucose tolerance (18 mmol/kg body weight, intraperitoneal or oral, overnight fasted) and insulin sensitivity (25 U/kg body weight) were assessed as previously described. Indirect calorimetry and energy expenditure in treated and control mice were measured using the Comprehensive Laboratory Animal Monitoring System (CLAMS) metabolic chambers (Columbus Instruments, Columbus, OH, USA). Total body lean and fat mass, bone mineral density and bone mineral content were also measured using DXA scanning (Piximus Densitometer, USA). Improvement in beta cell function in [L28K]esculentin-2CHa-treated and control mice were evaluated from the insulin secretory responses of islets isolated from these animals to established insulin secretagogues and incretin hormones (16.7 mM glucose, 1 μM GLP-1, 1 μM GIP, 10 mM alanine, 10 mM arginine and 30 mM KCl). Changes in islet morphology were assessed using pancreatic tissues excised from mice treated with [L28K]esculentin-2CHa or saline for 28 days as previously described.
# (§2) Pancreatic tissues were homogenized in 20 mM Tris-HCl, 150 mM NaCl, 1 mM EDTA, 1 mM EGTA and 0.5% Triton X 100; pH 7.5 as previously described. Blood samples (approximately 150 μl), collected from the cut tip of the tail vein of unanesthetized mice at intervals indicated in the Figures were used for blood glucose measurements and determination of plasma insulin as previously described. Blood glucose was measured using a hand-held Ascencia Contour meter (Bayer Healthcare, UK). Plasma and pancreatic insulin were determined by radioimmunoassay. Plasma and pancreatic glucagon contents were determined by ELISA using commercially available kit (Millipore, MA, USA). Plasma creatinine, alanine transaminase (ALT), aspartic acid transaminase (AST) and alkaline phosphatase (ALP) were measured using commercially available kits (Randox Laboratories, UK) as indicators of renal and liver function. Plasma triglyceride and cholesterol concentrations were measured using an automated clinical chemistry analyser (I-lab 650, and reagents purchased from Instrumentation Laboratory (Warrington, UK). The assay kit for cholesterol was obtained from Randox Laboratories (Antrim, UK). Estimation of LDL cholesterol concentrations was achieved using the Friedewald equation as described previously.
# BRIN-BD11 cells [4] = assay: Membrane potential, FLIPR membrane assay kit; type: cell-based, rat; details: 1 μM peptide, 5 min; mean ± SEM, n = 8
# Method: (§3) Effects of esculentin-2CHa (1 μM) and its analogues on membrane potential and [Ca^2+]i in BRIN-BD11 cells over a period of 5 min were assessed using commercially available FLIPR membrane or calcium assay kit (Molecular Devices, USA) as previously described. Data were captured using a Flexstation 3 microplate reader equipped with automatic fluid transfer unit (Molecular Devices, USA).
# BRIN-BD11 cells [5] = assay: Intracellular calcium ([Ca2+]i), FLIPR calcium assay kit; type: cell-based, rat; details: 1 μM peptide, 5 min; mean ± SEM, n = 8
# Method: as §3
# high fat fed mice [6] = assay: Acute in vivo glucose tolerance and insulin release; parameters: species or system mouse
# Method: as §1
# For acute in vivo studies, overnight fasted, high fat fed mice (n = 8) received an intraperitoneal injection of glucose alone (18 mmol/kg body weight) or in combination with esculentin-2CHa or its analogues (75 nmol/kg body weight). This peptide dose was selected on the basis of a pilot study that examined acute effects of different doses of esculentin-2CHa on glucose tolerance in lean mice. Blood samples were collected as described previously before injection and at times indicated in the Figures for the measurement of plasma glucose and insulin concentrations.
# as §2
# [7] = test system: BRIN-BD11 rat clonal β-cells; assay: In vitro insulin release from BRIN-BD11 cells; type: cell-based; details: 5.6 mM glucose
# Method: as §4
# [8] = 75 nmol/kg twice daily, 28 days
# [9] = after 28 days treatment, ip glucose 18 mmol/kg
# [10] = after 28 days treatment, oral glucose 18 mmol/kg
# [11] = ip glucose 18 mmol/kg with peptide 75 nmol/kg, AUC 0-60 min, mean ± SEM, n = 8
# [12] = peptide 75 nmol/kg ip with glucose 18 mmol/kg
sequence,measurement,setting,value
"GFSSIFRGVAKFASKGLGKDLAKLGVDKVACKISKQC (disulfide 31-37 (inferred)) [[L28K]Esculentin-2CHa, substituted analogue of esculentin-2CHa chosen for 28 day study]",LDH release (% of control),BRIN-BD11 cells [1],101.8±1.5 % of control
same,"Stimulation of insulin release from islets, fold of basal","[2]; 1 μM, 1 h",3.4 fold
same,Mouse islets (Threshold concentration),"[2]; insulin release, 1 h incubation, n = 8",1 nM
same,Body weight,high fat fed mice [3]; [8],did not affect
same,Food intake,high fat fed mice [3]; [8],did not affect
same,Increase in non-fasting plasma insulin versus saline-treated controls,high fat fed mice [3]; [8],42%
same,Reduction in non-fasting plasma glucose versus saline-treated controls,high fat fed mice [3]; [8],25%
same,Adverse effects,high fat fed mice [3]; 28 days treatment,no adverse effects were observed
same,Decrease in plasma creatinine,high fat fed mice [3]; 28 days treatment,40%
same,Number of islets per mm^2 of pancreas,high fat fed mice [3]; 28 days treatment,did not affect
same,Plasma HDL cholesterol,high fat fed mice [3]; 28 days treatment,no effect
same,Plasma triglycerides,high fat fed mice [3]; 28 days treatment,decreased
same,Reduction of alpha cell area,high fat fed mice [3]; 28 days treatment,48%
same,Reduction of beta cell area,high fat fed mice [3]; 28 days treatment,43%
same,Reduction of total islet area,high fat fed mice [3]; 28 days treatment,44%
same,Total pancreatic insulin content (greater in high fat fed mice),high fat fed mice [3]; 28 days treatment,reversed
same,"O2 consumption, CO2 production, energy expenditure and respiratory exchange ratio","high fat fed mice [3]; 28 days treatment, CLAMS metabolic chambers",not affected
same,Bone area,"high fat fed mice [3]; 28 days treatment, DXA",reversed the loss
same,Reduction of pancreatic glucagon,"high fat fed mice [3]; 28 days treatment, ELISA",20%
same,Reduction of plasma glucagon,"high fat fed mice [3]; 28 days treatment, ELISA",35%
same,Insulin sensitivity,"high fat fed mice [3]; after 28 days treatment, insulin 25 U/kg ip",no significant effect
same,"Improvement of glucose AUC 0–60 min, intraperitoneal glucose tolerance",high fat fed mice [3]; [9],20%
same,"Improvement of insulin AUC 0–60 min, intraperitoneal glucose",high fat fed mice [3]; [9],66%
same,Improvement of glycaemic excursion following oral glucose,high fat fed mice [3]; [10],23%
same,Improvement of insulin response following oral glucose,high fat fed mice [3]; [10],68%
same,Insulin-secretory responses of isolated islets to secretagogues,"high fat fed mice [3]; islets from mice treated 28 days, glucose, GLP-1, GIP, alanine, arginine, KCl",restored
same,"Membrane potential (AUC, x 10^3 RFU)",BRIN-BD11 cells [4],7.78±0.22 x 10^3 RFU
same,"Intracellular Ca2+ (AUC, x 10^2 RFU)",BRIN-BD11 cells [5],7.28±0.94 x 10^2 RFU
same,Plasma glucose (AUC),high fat fed mice [6]; [11],"327.61±36.87 ^, Δ mmol/l.min"
same,Plasma insulin (AUC),high fat fed mice [6]; [11],"262.81±30.56 ^,ΔΔΔ ng/ml.min"
same,Decrease of plasma glucose AUC versus glucose alone,high fat fed mice [6]; [12],52%
same,Stimulation of insulin response relative to that with esculentin-2CHa,high fat fed mice [6]; [12],2.8 fold
same,Stimulatory effect on insulin release at 3 μM compared with native peptide,[7]; 3 μM,greater
same,BRIN-BD11 cells (Threshold concentration),"[7]; minimum concentration producing a significant increase in rate of insulin release, 20 min, 37°C, n = 8",10 pM
